Measurements reported in publication PMC10175918 (Communications Biology, 2023).
Like-named read-outs stand apart in the source and are kept apart here.

Assays:
Test in all cases: TGFα-shedding assay-based GPCR screening with chimeric Gα subunit proteins
Format in all cases: cell-based
348 GPCRs [1] = biological target: T1, 348 GPCRs (Homo sapiens, UniProt O43614); settings: HCRTR2 (hypocretin (orexin) receptor 2); 10µM, Favipiravir 100μM
T1 construct: expressed in transfected cells; host or cells: HEK293A
T1 sequence (O43614 1-444): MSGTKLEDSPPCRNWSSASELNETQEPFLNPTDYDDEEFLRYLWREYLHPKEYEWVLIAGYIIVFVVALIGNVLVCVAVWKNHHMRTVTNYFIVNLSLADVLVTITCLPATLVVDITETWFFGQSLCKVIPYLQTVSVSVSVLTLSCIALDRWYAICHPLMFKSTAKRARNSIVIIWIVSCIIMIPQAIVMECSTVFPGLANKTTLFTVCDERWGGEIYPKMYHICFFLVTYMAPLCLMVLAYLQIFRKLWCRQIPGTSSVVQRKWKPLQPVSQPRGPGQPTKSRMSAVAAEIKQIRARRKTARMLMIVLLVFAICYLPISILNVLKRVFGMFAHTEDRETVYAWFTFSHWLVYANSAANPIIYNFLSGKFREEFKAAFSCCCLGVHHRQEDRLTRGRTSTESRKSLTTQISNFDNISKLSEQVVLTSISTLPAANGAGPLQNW

348 GPCRs [2] = biological target: 348 GPCRs (Homo sapiens, UniProt P07550); settings: 10µM, Favipiravir 100μM
348 GPCRs (Homo sapiens, UniProt P07550), sequence (P07550 whole entry): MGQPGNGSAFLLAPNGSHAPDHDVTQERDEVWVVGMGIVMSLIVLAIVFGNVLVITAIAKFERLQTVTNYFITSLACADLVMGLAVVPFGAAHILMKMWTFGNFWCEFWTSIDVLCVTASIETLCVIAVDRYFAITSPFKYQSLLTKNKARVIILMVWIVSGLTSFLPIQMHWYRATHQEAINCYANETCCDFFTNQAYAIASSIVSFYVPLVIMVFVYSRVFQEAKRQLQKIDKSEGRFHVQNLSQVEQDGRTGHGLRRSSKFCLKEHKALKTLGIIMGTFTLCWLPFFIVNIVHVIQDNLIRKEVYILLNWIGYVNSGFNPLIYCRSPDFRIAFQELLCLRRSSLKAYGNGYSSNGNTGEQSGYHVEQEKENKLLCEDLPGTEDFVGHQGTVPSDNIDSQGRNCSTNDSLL

348 GPCRs [3] = biological target: T2, 348 GPCRs (Homo sapiens, UniProt P30988); settings: 10µM, Favipiravir 100μM
T2 sequence (P30988 25-474): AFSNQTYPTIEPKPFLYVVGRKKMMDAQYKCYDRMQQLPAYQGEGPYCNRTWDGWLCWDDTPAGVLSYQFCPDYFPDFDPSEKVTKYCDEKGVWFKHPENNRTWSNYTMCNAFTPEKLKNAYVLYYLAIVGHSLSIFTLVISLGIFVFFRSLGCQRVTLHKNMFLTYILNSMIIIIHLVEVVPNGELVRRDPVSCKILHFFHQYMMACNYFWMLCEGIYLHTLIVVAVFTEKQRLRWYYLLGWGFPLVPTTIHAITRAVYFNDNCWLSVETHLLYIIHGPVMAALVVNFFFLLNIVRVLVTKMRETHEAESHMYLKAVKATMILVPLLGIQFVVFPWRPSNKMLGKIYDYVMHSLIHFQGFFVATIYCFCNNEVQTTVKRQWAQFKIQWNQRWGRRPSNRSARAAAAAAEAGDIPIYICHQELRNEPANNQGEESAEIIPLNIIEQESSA

348 GPCRs [4] = biological target: T3, 348 GPCRs (Homo sapiens, UniProt P49146); settings: 10µM, Favipiravir 100μM
T3 construct: expressed in transfected cells; host or cells: HEK293A
T3 sequence (P49146 1-381): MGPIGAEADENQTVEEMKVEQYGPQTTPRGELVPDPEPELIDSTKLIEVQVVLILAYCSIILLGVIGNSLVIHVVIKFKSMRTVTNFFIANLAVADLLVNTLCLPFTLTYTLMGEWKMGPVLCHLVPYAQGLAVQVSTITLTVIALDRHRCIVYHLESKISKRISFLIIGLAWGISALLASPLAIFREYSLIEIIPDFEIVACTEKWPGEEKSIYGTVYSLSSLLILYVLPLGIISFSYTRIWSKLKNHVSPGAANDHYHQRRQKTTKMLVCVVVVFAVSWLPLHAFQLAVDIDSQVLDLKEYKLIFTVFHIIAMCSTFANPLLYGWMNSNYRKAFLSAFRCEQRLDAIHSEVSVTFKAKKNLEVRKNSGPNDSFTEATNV

348 GPCRs [5] = biological target: 348 GPCRs (Homo sapiens, UniProt Q9UPC5); settings: 10µM, Favipiravir 100μM
348 GPCRs (Homo sapiens, UniProt Q9UPC5), sequence (Q9UPC5 whole entry): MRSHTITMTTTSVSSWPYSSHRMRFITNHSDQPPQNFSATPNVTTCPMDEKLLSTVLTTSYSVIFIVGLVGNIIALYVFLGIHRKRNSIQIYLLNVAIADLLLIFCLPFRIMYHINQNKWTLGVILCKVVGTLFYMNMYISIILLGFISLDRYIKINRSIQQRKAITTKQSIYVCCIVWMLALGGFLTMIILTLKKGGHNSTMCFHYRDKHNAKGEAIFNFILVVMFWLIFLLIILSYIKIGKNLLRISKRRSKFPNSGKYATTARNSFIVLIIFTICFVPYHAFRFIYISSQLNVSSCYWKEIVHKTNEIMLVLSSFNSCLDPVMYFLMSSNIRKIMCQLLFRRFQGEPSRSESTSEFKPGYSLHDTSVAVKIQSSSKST

348 GPCRs [6] = biological target: T4, 348 GPCRs (Homo sapiens, UniProt Q9Y2T6)
T4 construct: expressed in transfected cells; host or cells: HEK293A
T4 sequence (Q9Y2T6 whole entry): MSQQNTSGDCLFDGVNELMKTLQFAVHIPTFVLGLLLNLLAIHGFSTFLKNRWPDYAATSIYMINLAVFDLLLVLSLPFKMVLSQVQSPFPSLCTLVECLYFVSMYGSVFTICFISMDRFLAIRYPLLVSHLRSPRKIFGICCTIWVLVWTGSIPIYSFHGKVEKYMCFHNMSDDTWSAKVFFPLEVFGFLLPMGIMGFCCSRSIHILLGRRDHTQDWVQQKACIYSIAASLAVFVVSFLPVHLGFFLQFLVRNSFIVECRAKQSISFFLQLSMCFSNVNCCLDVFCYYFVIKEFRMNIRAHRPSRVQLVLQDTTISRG

[7] = ADRB2 (adrenoceptor beta 2, surface), read-out: % GPCR activation compared to TPA
[8] = CALCR (calcitonin receptor), read-out: % GPCR activation compared to TPA
[9] = NPY2R (neuropeptide Y receptor Y2), read-out: % GPCR activation compared to TPA
[10] = GPR34 (G Protein-Coupled Receptor 34), read-out: % GPCR activation compared to TPA
[11] = GPCR GPR55 (G Protein-Coupled Receptor 55), read-out: % GPCR activation compared to TPA
[12] = read-out: % GPCR activation compared to TPA, ADRB2 (adrenoceptor beta 2, surface)
[13] = read-out: % GPCR activation compared to TPA, CALCR (calcitonin receptor)
[14] = read-out: % GPCR activation compared to TPA, NPY2R (neuropeptide Y receptor Y2)
[15] = read-out: % GPCR activation compared to TPA, GPR34 (G Protein-Coupled Receptor 34)
[16] = read-out: % GPCR activation compared to TPA, GPCR GPR55 (G Protein-Coupled Receptor 55)

Row | SMILES | % GPCR activation compared to TPA (348 GPCRs [1]) [%] | activation at 10 µM (348 GPCRs [2]; [7]) [%] | activation at 100 µM (348 GPCRs [3]; [8]) [%] | activation at 100 µM (348 GPCRs [4]; [9]) [%] | activation at 10 µM (348 GPCRs [5]; [10]) [%] | activation at 10 µM (348 GPCRs [6]; [11]) [%] | activation at 100 µM (348 GPCRs [6]; GPCR GPR55 (G Protein-Coupled Receptor 55), 100μM, read-out: % GPCR activation compared to TPA) [%] | activation at 10 µM (348 GPCRs [2]; [12]) [%] | activation at 100 µM (348 GPCRs [3]; [13]) [%] | activation at 100 µM (348 GPCRs [4]; [14]) [%] | activation at 10 µM (348 GPCRs [5]; [15]) [%] | activation at 10 µM (348 GPCRs [6]; [16]) [%]
1 | CCC(CC)COC(=O)[C@H](C)N[P@](=O)(OC[C@H]1O[C@@](C#N)(c2ccc3c(N)ncnn23)[C@H](O)[C@@H]1O)Oc1ccccc1 [remdesivir] | 0.0002648 |  |  |  |  |  |  | 1.06 | 1.27 | 1.07 | -1.23 | -2.75
2 | CC(C)OC(=O)[C@H](C)N[P@](=O)(OC[C@H]1O[C@@H](n2ccc(=O)[nH]c2=O)[C@](C)(F)[C@@H]1O)Oc1ccccc1 [sofosbuvir] | -1.966 |  |  |  |  |  |  | 1.76 | -2.01 | -5.23 | -0.895 | -0.223

Continued, in another order:

Row | % GPCR activation compared to TPA (348 GPCRs [1]) [%] | activation at 10 µM (348 GPCRs [2]; [7]) [%] | activation at 100 µM (348 GPCRs [3]; [8]) [%] | activation at 100 µM (348 GPCRs [4]; [9]) [%] | activation at 10 µM (348 GPCRs [5]; [10]) [%] | activation at 10 µM (348 GPCRs [6]; [11]) [%] | activation at 100 µM (348 GPCRs [6]; GPCR GPR55 (G Protein-Coupled Receptor 55), 100μM, read-out: % GPCR activation compared to TPA) [%] | SMILES | activation at 10 µM (348 GPCRs [2]; [12]) [%] | activation at 100 µM (348 GPCRs [3]; [13]) [%] | activation at 100 µM (348 GPCRs [4]; [14]) [%] | activation at 10 µM (348 GPCRs [5]; [15]) [%] | activation at 10 µM (348 GPCRs [6]; [16]) [%]
3 | 2.174 | -0.409 | -3.54 | 0.462 | -1.27 | -0.0977 |  | N#C[C@@]1(c2ccc3c(N)ncnn23)O[C@H](CO)[C@@H](O)[C@H]1O [GS441524] |  |  |  |  | 
4 | 0.7248 | -1 | -3.06 | -0.896 | -0.575 |  | -0.0195 | NC(=O)c1nc(F)cnc1O [favipiravir, 6-fluoro-3-hydroxy-2-pyrazinecarboxamide] |  |  |  |  | 
5 | 0.4774 | 0.263 | -0.059 | -4.76 | -1.95 | 0.0448 |  | CC(C)C(=O)OC[C@H]1O[C@@H](n2ccc(NO)nc2=O)[C@H](O)[C@@H]1O [molnupiravir] |  |  |  |  | 
